Laboratory results: PMC10216263, “Favorable Preclinical Pharmacological Profile of a Novel Antimalarial Pyrrolizidinylmethyl Derivative of 4-amino-7-chloroquinoline with Potent In Vitro and In Vivo Activities” (Biomolecules, 2023)

Tests used:
[1] = system: dog hepatocytes; assay: Intrinsic clearance in hepatocytes; type: in vitro ADME; details: 1 µM
Method: (§1) An automatic liquid handling system (Multiprobe II EX, Packard) was used for sampling. At 0, 10, 20, 30, 60 and 90 min, […] aliquots of the incubates were taken and added with […] of ice-cold ACN and […] of 1 µM warfarin in ACN (internal standard), and samples centrifuged at 2000 rpm for 20 min. The analysis of supernatant was conducted using LC-MS/MS. MG3 was incubated in the medium under the same conditions to evaluate the chemical stability; 7-ethoxycoumarin (7-ETC) 1 µM and 7-hydroxycoumarin (7-HC) 30 µM were utilized as positive controls for Phase I and Phase II activities. […] Half-life and CLint were determined from the concentration (counts) remaining at the different sampling points using the LC-MS/MS method. The slope was calculated using linear regression analysis of the curve (natural logarithmic area of the compound remaining against the time) and converted into the half-life (t1/2) and CLint expressed as µL/min/million cells and mL/min/kg, respectively.

[2] = system: rat hepatocytes; assay: Intrinsic clearance in hepatocytes; type: in vitro ADME; details: 1 µM
Method: as §1

[3] = system: human hepatocytes; assay: Intrinsic clearance in hepatocytes; type: in vitro ADME; details: 1 µM
Method: as §1

[4] = system: monkey hepatocytes; assay: Intrinsic clearance in hepatocytes; type: in vitro ADME; details: 1 µM
Method: as §1

[5] = Intrinsic clearance in hepatocytes; type: in vitro ADME
Method: as §1

[6] = system: mouse hepatocytes; assay: Intrinsic clearance in hepatocytes; type: in vitro ADME; details: 1 µM
Method: as §1

[7] = in vivo; details: CD1, mouse, po, 10 mg/kg, AUClast
[8] = molecular target: CYP1A2 (Homo sapiens, UniProt P05177); assay: in vitro
[9] = system: P. falciparum D10 (CQ-S); set-up: method as in PMID 18538567; details: 72 h incubation, pLDH method, mean of 3 experiments; cited from earlier work
[10] = system: P. berghei ANKA; assay: Oral curative activity against P. berghei ANKA; type: in vivo, P. berghei in mice
[11] = 7-day oral DRF in dog; type: in vivo, Beagle dog; details: dogs, 15 and 30 mg/kg/day oral, 7 days
Method: (§2) Seven days oral DRF in rats and dog, and five days oral DRF in Non-Human Primates (NHP) were performed using Sprague Dawley rats (n = 3/time point) of both sexes, one male and one female dog Beagle (Marshall/Green Hill) and one male and one female monkeys/Cynomolgus (Noveprim Ltd., Mahebourg Mauritius,). MG3 was administered as oral suspension in 0.5% methocel in water (400 cP viscosity) at the following doses: 30, 60 and 120 mg/kg/day for 7 days (rat), 15 and 30 mg/kg/days for 7 days (dog) and 25, 50 and 75 mg/kg/day (NHP). No Observed Effects Levels (NOEL) were determined. Mortality, behavior, and general conditions were observed daily. Body weight was recorded pre-test, and on Days 1, 4 and 7. Food consumption was recorded from Days 1 to 4 and 4 to 7. Hematological and clinical chemistry examinations were performed on Day 8. All animals were sacrificed under anesthesia at the end of the treatment period on Day 8 of study. Post-mortem examinations included necropsy, collection, and histological examination performed of selected organs/tissues.

[12] = molecular target: hERG K+ channel (Homo sapiens, UniProt Q12809); assay: [3H]-astemizole binding assay in HEK293 cell membranes
Method: Methods for hERG interaction
Membranes were prepared from HEK293 cells stably transfected with the human ERG (ether-a-go-go related
gene; U04270) from Cytomix.
was used as radioligand. Non-specific binding was evaluated in the presence of an excess of 10 µM cold
The concentration-response curve was performed in a range from 0.03 to 30 µM (seven

[13] = CD1, mouse, in vivo, po, 10 mg/kg
[14] = system: P. chabaudi AS; assay: Four-day suppressive Peters' test, oral; type: in vivo, P. chabaudi in CD1 mice; details: once a day for 4 days, parasitemia day 4, CD1 mice
Method: Groups of five CD1 mice were inoculated i.v., with 4 × 10^6 infected erythrocytes/mice. Compounds, dissolved in standard suspending formula (SSV) (0.5% sodium carboxymethylcellulose, 0.5% benzyl alcohol, 0.4% Tween 80, and 0.9% NaCl), were administered once a day for 4 days via oral gavage, starting two hours post-infection. […] Parasitemia was evaluated using microscopic examination of Giemsa-stained blood films taken on day four, processed using MICROSOFT® EXCEL spreadsheets (Microsoft Corp., Redmond, WA, USA), and expressed as percentages of inhibition from the arithmetic mean parasitemia of each group in relation to the untreated group. ED50 and ED90 values were calculated using GraphPad Prism 6 (GraphPad Software Inc., La Jolla, CA, USA).

[15] = system: P. falciparum K1 (CQ-R); assay: In vitro combination study (isobologram, ∑FIC); type: cell-based
[16] = 7-day oral dose range finding (DRF) and systemic exposure in rats; type: in vivo, Sprague Dawley rats
Method: as §2
Systemic exposure was measured in three additional rats/sex/group at different time-points up to 24 and 48 h after the treatment and on Days 1 and 7, respectively.

[17] = male, Sprague Dawley, rat, in vivo, po, 30 mg/kg/day

Sequence of hERG K+ channel (Q12809 whole entry): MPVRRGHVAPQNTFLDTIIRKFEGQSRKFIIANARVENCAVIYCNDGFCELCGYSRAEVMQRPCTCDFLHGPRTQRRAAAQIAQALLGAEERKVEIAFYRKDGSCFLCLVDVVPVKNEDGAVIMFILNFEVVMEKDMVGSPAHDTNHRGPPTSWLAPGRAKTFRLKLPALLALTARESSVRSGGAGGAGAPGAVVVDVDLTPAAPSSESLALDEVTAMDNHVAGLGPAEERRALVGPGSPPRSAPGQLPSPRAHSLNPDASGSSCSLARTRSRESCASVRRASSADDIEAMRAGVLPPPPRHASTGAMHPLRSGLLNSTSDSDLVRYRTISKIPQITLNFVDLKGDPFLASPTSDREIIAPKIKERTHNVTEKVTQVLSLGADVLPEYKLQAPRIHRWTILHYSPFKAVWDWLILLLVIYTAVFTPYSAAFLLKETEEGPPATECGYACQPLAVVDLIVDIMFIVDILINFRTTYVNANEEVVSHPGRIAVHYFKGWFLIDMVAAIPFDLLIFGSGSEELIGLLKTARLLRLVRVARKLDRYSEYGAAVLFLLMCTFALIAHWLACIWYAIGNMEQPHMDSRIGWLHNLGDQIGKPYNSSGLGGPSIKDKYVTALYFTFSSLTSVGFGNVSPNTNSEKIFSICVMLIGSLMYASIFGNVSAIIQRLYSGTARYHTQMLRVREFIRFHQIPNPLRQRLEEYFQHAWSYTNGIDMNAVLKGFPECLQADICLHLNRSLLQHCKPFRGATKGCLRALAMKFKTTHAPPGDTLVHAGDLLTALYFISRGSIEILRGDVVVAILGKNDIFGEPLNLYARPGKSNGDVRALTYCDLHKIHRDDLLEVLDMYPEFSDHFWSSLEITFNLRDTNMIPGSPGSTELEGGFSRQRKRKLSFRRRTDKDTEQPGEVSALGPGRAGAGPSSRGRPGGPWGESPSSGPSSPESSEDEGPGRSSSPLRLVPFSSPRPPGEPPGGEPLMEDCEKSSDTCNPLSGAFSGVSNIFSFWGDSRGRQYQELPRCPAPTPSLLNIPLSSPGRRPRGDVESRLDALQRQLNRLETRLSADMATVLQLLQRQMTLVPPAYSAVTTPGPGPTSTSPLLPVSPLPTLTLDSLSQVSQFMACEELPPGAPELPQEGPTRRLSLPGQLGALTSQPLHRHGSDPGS
Sequence of CYP1A2 (P05177 whole entry): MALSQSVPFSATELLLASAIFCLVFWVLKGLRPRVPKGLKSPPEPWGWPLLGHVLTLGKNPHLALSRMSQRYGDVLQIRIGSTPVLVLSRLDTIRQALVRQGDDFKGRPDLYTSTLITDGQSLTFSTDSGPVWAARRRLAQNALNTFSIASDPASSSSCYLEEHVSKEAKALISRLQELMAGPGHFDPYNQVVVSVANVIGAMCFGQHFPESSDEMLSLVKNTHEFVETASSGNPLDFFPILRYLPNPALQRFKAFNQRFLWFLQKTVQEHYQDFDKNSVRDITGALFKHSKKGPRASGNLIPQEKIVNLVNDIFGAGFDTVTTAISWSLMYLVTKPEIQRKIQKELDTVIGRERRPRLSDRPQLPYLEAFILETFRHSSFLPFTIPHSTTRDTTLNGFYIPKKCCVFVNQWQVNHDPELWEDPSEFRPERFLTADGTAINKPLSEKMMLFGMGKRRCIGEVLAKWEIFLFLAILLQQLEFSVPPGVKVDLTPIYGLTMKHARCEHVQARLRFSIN

SMILES: Clc1ccc2c(NCC34CCCN3CCC4)ccnc2c1 [MG3, 7-Chloro-N-((hexahydro-1H-pyrrolizin-7a-yl)methyl)quinolin-4-amine]
- Half/life [1]: 0.8 h
- Half/life [2]: 1.08 h
- Half/life [3]: 5.67 h
- Half/life [4]: 1.43 h
- CLint scaled at 1 µM ([5]; dog hepatocytes): 111 mL/min/kg
- CLint scaled at 1 µM ([5]; human hepatocytes): 4.9 mL/min/kg
- CLint scaled at 1 µM ([5]; monkey hepatocytes): 44 mL/min/kg
- CLint scaled at 1 µM ([5]; mouse hepatocytes): 196 mL/min/kg
- CLint scaled at 1 µM ([5]; rat hepatocytes): 51 mL/min/kg
- Half/life [6]: 0.517 h
- AUC(0-t) [7]: 1030 ng·h/mL
- inhibition at 3 µM [8]: 12.1 ± 1.2%
- IC50 [9]: 30.6 nM
- prolonged mice survival compared to CQ, amodiaquine or artesunate ([10]; 30 mg/kg for 3 times): approximately 50%
- curative activity ([10]; 30 mg/kg for 3 times, P. berghei-infected mice): not curative
- % Suppression of parasitaemia (on day 4 post infection) ([10]; oral dose 3 x 30 mg/kg): 100%
- Average survival (days) after infection ([10]; oral dose 3 x 30 mg/kg, individual values in brackets): 22 (17, 23, 23, 24, 24) days
- toxicity finding [11]: associated with mortality one week after last treatment due to acute renal failure
- Ki [12]: 553 ± 45 nM
- AUClast [13]: 41,067 min*ng/mL
- ED50 ([14]; Plasmodium chabaudi, 96 h, read-out: ED50 (95% CI) Mean): 4.69 mg/kg
- ED90 (95% CI) Mean [14]: 9.80 (8.86–10.6) mg/kg
- Mean ∑FIC50 (95% CI) ([15]; in combination with ASN, K1, IC50 level): 1.25 (0.94 – 1.56)
- Mean ∑FIC50 (95% CI) ([15]; in combination with DHA, K1, IC50 level): 1.25 (1.21 – 1.29)
- Mean ∑FIC50 (95% CI) ([15]; in combination with RKA-182, K1, IC50 level): 1.24 (0.85 – 1.63)
- interaction (isobologram) ([15]; in combination with azitromycin, K1 (CQ-R)): additive
- mortality ([16]; 30, 60, and 120 mg/kg/day oral, 7 days): no mortality occurred
- MTD at 7 days ([16]; both sexes, Sprague Dawley, rat, in vivo, oral, 7 days, rats, read-out: maximum tolerated dose (MTD)): 120 mg/kg/day
- AUC(0-t) ([16]; female, Sprague Dawley, rat, in vivo, po, 30 mg/kg/day, AUC0–24): 2560 ± 650 ng·h/mL
- AUC(0-t) ([16]; female, Sprague Dawley, rat, in vivo, po, 30 mg/kg/day, AUC0–48): 3800 ± 1000 ng·h/mL
- Cmax ([16]; female, Sprague Dawley, rat, in vivo, po, 30 mg/kg/day): 149 ± 34 ng/mL
- AUC(0-t) ([16]; female, Sprague Dawley, rat, in vivo, po, 60 mg/kg/day, AUC0–24): 8630 ± 870 ng·h/mL
- AUC(0-t) ([16]; female, Sprague Dawley, rat, in vivo, po, 60 mg/kg/day, AUC0–48): 15000 ± 900 ng·h/mL
- Cmax ([16]; female, Sprague Dawley, rat, in vivo, po, 60 mg/kg/day): 646 ± 201 ng/mL
- AUC(0-t) ([16]; female, Sprague Dawley, rat, in vivo, po, 120 mg/kg/day, AUC0–24): 19400 ± 7500 ng·h/mL
- AUC(0-t) ([16]; female, Sprague Dawley, rat, in vivo, po, 120 mg/kg/day, AUC0–48): 29800 ± 9600 ng·h/mL
- Cmax ([16]; female, Sprague Dawley, rat, in vivo, po, 120 mg/kg/day): 1570 ± 270 ng/mL
- AUC(0-t) ([16]; female, Sprague-Dawley, rat, in vivo, po, 30 mg/kg/day, AUC0–24): 2530 ± 500 ng·h/mL
- AUC(0-t) ([16]; female, Sprague-Dawley, rat, in vivo, po, 60 mg/kg/day, AUC0–24): 4740 ± 770 ng·h/mL
- Cmax ([16]; female, Sprague-Dawley, rat, in vivo, po, 60 mg/kg/day): 259 ± 46 ng/mL
- AUC(0-t) ([16]; female, Sprague-Dawley, rat, in vivo, po, 120 mg/kg/day, AUC0–24): 5210 ± 1600 ng·h/mL
- Cmax ([16]; female, Sprague-Dawley, rat, in vivo, po, 120 mg/kg/day): 411 ± 288 ng/mL
- AUC0–24 [16, 17]: 1880 ± 190 ng·h/mL
- AUC(0-t) ([16]; male, Sprague Dawley, rat, in vivo, po, 30 mg/kg/day, AUC0–24): 1880 ± 380 ng·h/mL
- AUC(0-t) ([16]; male, Sprague Dawley, rat, in vivo, po, 30 mg/kg/day, AUC0–48): 2460 ± 550 ng·h/mL
- Cmax [16, 17]: 140 ± 30 ng/mL
- AUC(0-t) ([16]; male, Sprague Dawley, rat, in vivo, po, 60 mg/kg/day, AUC0–24): 5090 ± 450 ng·h/mL
- AUC(0-t) ([16]; male, Sprague Dawley, rat, in vivo, po, 60 mg/kg/day, AUC0–48): 7330 ± 310 ng·h/mL
- Cmax ([16]; male, Sprague Dawley, rat, in vivo, po, 60 mg/kg/day): 321 ± 50 ng/mL
- AUC(0-t) ([16]; male, Sprague Dawley, rat, in vivo, po, 120 mg/kg/day, AUC0–24): 17400 ± 3200 ng·h/mL
- AUC(0-t) ([16]; male, Sprague Dawley, rat, in vivo, po, 120 mg/kg/day, AUC0–48): 27500 ± 3900 ng·h/mL
- Cmax ([16]; male, Sprague Dawley, rat, in vivo, po, 120 mg/kg/day): 1090 ± 260 ng/mL
- AUC(0-t) ([16]; male, Sprague-Dawley, rat, in vivo, po, 60 mg/kg/day, AUC0–24): 3530 ± 180 ng·h/mL
- Cmax ([16]; male, Sprague-Dawley, rat, in vivo, po, 60 mg/kg/day): 220 ± 10 ng/mL
- AUC(0-t) ([16]; male, Sprague-Dawley, rat, in vivo, po, 120 mg/kg/day, AUC0–24): 3840 ± 700 ng·h/mL
- Cmax ([16]; male, Sprague-Dawley, rat, in vivo, po, 120 mg/kg/day): 209 ± 49 ng/mL
- food consumption ([16]; rat, in vivo): Minimal to moderate decrease in food consumption
- clinical chemistry on Day 8 ([16]; rat, in vivo, 120 mg/kg/day): slight to moderate increase in ALT and AST
- systemic exposure in females higher than in males ([16]; rat, in vivo, po): about two-fold
- mortality and liver toxicity ([16]; up to 60 mg/kg, 7-day oral toxicity study): no mortality and no clinical evidence of liver toxicity
